Measured values as given in US9957265B2, “N-(2-cyano heterocyclyl) pyrazolo pyridones as janus kinase inhibitors” (Merck Sharp & Dohme Corp., priority 2013, dated 2018).
Like-named read-outs stand apart in the source and are kept apart here.

Columns and labels:
JAK1 = JAK1 (Homo sapiens (Human), UniProt P23458); test: Jak Biochemical HTRF Assay (JAK1); conditions: recombinant GST-tagged catalytic domain, [ATP] 31.8 μM, unit not given (compound concentrations tested given in nM)
Excerpt: Jak Biochemical HTRF Assay Protocol
Subsequent reagent additions employed an Agilent Bravo.

JAK2 = JAK2 (Homo sapiens (Human), UniProt O60674); test: Jak Biochemical HTRF Assay (JAK2)
Method: The ability of compounds to inhibit the activity of JAK1, JAK2, JAK3, and TYK2 was measured using a recombinant purified GST-tagged catalytic domain for each enzyme (Invitrogen JAK1 #M4290, JAK2 #M4290, JAK3 #M4290, TYK2 #M4290) in an HTRF format biochemical assay. […] Subsequent reagent additions employed an Agilent Bravo. […] After equilibration, 2 μL of 10×ATP in 1× assay buffer was added to initiate the kinase reaction and the plates were shaken and then incubated at room temperature for 120 minutes. […] After normalization to untreated controls, the percent inhibition of the HTRF signal at each compound concentration was calculated. The plot of percent inhibition versus the log of compound concentration was fit with a 4-parameter dose response equation to calculate IC50 values.
Final reaction conditions were:

[1] = JAK2 IC50, recombinant GST-tagged catalytic domain, [ATP] 8.5 μM, unit not given (compound concentrations tested given in nM)
[2] = read-out: JAK2 IC50, recombinant GST-tagged catalytic domain, [ATP] 8.5 μM, unit not given (compound concentrations tested given in nM)

Sequence of JAK1 (P23458 875-1153): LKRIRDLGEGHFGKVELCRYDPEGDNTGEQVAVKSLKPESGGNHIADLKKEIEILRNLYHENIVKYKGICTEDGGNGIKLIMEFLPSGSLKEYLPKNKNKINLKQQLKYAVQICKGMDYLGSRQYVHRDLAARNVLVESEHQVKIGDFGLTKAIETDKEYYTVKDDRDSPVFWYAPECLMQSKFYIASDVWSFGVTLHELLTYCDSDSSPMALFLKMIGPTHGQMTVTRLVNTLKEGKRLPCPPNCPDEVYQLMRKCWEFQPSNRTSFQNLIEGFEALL
Sequence of JAK2 (O60674 849-1124): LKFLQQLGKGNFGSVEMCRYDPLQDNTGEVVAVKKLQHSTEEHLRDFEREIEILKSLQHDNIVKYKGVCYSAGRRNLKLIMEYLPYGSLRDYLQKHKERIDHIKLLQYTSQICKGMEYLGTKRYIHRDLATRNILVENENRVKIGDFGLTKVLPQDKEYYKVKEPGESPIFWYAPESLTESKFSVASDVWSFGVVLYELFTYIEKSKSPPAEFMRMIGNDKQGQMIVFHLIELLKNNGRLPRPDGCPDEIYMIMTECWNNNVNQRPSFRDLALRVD

Row | SMILES | IC50 (JAK1) [nM] | IC50 (JAK2; [1]) [nM] | IC50 (JAK2; [2]) [nM]
1 | CC1(C)CC1NC(c1ccc(Nc2nn([C@H]3COCC[C@@H]3C#N)c3cc[nH]c(=O)c23)cc1)C(F)(F)F (single isomer, unassigned) [Example 1-49, (3R,4S)-3-{3-[(4S or 4R-{1S or 1R-[(2,2-dimethylcyclopropyl)amino]-2,2,2-trifluoroethyl}phenyl)amino]-4-oxo-4,5-dihydro-1H-pyrazolo[4,3-c]pyridin-1-yl}tetrahydro-2H-pyran-4-carbonitrile] | 0.18 | 0.3 | –
2 | C[C@@H]1CN(S(=O)(=O)c2ccc(Nc3nn([C@H]4COCC[C@@H]4C#N)c4cc[nH]c(=O)c34)cc2)C[C@H](C)O1 [Example 1-73, (3R,4S)-3-{3-[(4-{[(cis)-2,6-dimethylmorpholin-4-yl]sulfonyl}phenyl)amino]-4-oxo-4,5-dihydro-1H-pyrazolo[4,3-c]pyridin-1-yl}tetrahydro-2H-pyran-4-carbonitrile] | 0.35 | – | 0.7
3 | CC(C)N1Cc2ccc(Nc3nn([C@H]4COCC[C@@H]4C#N)c4cc[nH]c(=O)c34)cc2C1 [Example 1-15, (3R,4S)-3-(3-{[2-(1-methylethyl)-2,3-dihydro-1H-isoindol-5-yl]amino}-4-oxo-4,5-dihydro-1H-pyrazolo[4,3-c]pyridin-1-yl)tetrahydro-2H-pyran-4-carbonitrile] | 0.12 | – | 0.27
4 | COc1cc(Nc2nn([C@H]3COCC[C@@H]3C#N)c3cc[nH]c(=O)c23)ccc1F [Example 1-17, (3R,4S)-3-{3-[(4-fluoro-3-methoxyphenyl)amino]-4-oxo-4,5-dihydro-1H-pyrazolo[4,3-c]pyridin-1-yl}tetrahydro-2H-pyran-4-carbonitrile] | 0.09 | – | 2.52
5 | CC(C)(C)S(=O)(=O)c1ccc(Nc2nn([C@@H]3COCCC[C@@H]3C#N)c3cc[nH]c(=O)c23)cc1 (single isomer, unassigned) [Example 1-25, (3S,4S or 3R,4R)-3-(3-{[4-(tert-butylsulfonyl)phenyl]amino}-4-oxo-4,5-dihydro-1H-pyrazolo[4,3-c]pyridin-1-yl)oxepane-4-carbonitrile] | 2.27 | 3.43 | –
6 | N#C[C@H]1CCOC[C@@H]1n1nc(Nc2ccc(C(N3CCCC3)C(F)(F)F)cc2)c2c(=O)[nH]ccc21 (single isomer, unassigned) [Example 1-42, (3R,4S)-3-[4-oxo-3-({4-[(1R or 1S)-2,2,2-trifluoro-1-pyrrolidin-1-ylethyl]phenyl}amino)-4,5-dihydro-1H-pyrazolo[4,3-c]pyridin-1-yl]tetrahydro-2H-pyran-4-carbonitrile] | 0.05 | 0.13 | –
